# Assay results taken from patent US10874334B1, “Methods and systems for quantification of blood-brain barrier permeation of glycosylated peptides” (ARIZONA BOARD OF REGENTS ON BEHALF OF THE UNIVERSITY OF …, priority 2016, dated 2020).
# Experiments:
# [1] = Degradation study of enkephalins spiked into rodent serum (FIA-MS^n); conditions: for stability (degradation) in serum with 5% acetic acid: rat serum + 5% acetic acid (HAc), 60-minute period before measurements (Ser+HAc+60 min); for stability (degradation) in serum: rat serum, peptides incubated in serum for 60 minutes prior to the study (Ser+60 min)
# Description: Ser refers to when Enkephalins were added to rat serum and degradation was allowed to proceed and the remaining enkephalin levels were measured at specific time points. […] Ser+HAc+60 min refers to when 5% acetic acid (HAc) was added to the serum, preserving enkephalins by inhibiting degradation during a 60 minute period before beginning measurements (Ser+HAc+60 min.). All error bars are SEM. Statistical significance is indicated by asterisks when p<0.05.
# Degradation studies of enkephalins in biological fluids were performed by […]. […] Enkephalins were added to rat serum and degradation was allowed to proceed and the remaining enkephalin levels were measured at specific time points (Ser).
# [2] = Degradation study of enkephalins spiked into cerebral spinal fluid (CSF) from rats; conditions: for stability (degradation) in CSF with 5% HAc: CSF from rats + 5% HAc (+CSF+HAc), compared with isotonic aCSF
Compound,stability (degradation) in serum with 5% acetic acid [1],stability (degradation) in serum [1],"stability (degradation) in CSF ([2]; CSF from rats (+CSF), single exponential decay fit)",stability (degradation) in CSF with 5% HAc [2]
"CC(C)C[C@H](NC(=O)[C@H](Cc1ccccc1)NC(=O)CNC(=O)CNC(=O)[C@@H](N)Cc1ccc(O)cc1)C(=O)O [Leu-Enkephalin, leucine enkephalin]",preserved enkephalins by inhibiting degradation,degradation was already complete,degradation occurs in CSF over 20 minutes,prevents the degradation
methionine enkephalin [Met-Enkephalin],preserved enkephalins by inhibiting degradation,degradation was already complete,–,prevents the degradation
